The values below come from US11865110B2, “Thrombin inhibitors, formulations, and uses thereof” (VERSEON INTERNATIONAL CORPORATION, priority 2018, dated 2024).

Data set [1] concerns platelet activation (mouse thrombin). The experiment in a line: Inhibition of platelet activation in CD-1 mouse plasma. Format: cell-based. The conditions noted are these: CD-1 mouse platelet-rich plasma, Chrono-Lume luminescence, read-out: EC50 towards inhibited platelet activation. The method, then: Assays for inhibition of platelet activation in mouse plasma were performed by the following procedure. Test compounds and positive controls were first diluted in a three-fold series in DMSO to generate a range of concentrations for each from 1500 to 0.08 μM. 2 μL of each sample solution was then placed in corresponding wells of a 96-well plate (the “assay plate”) containing 88 μL of a platelet-rich plasma (PRP) mix described below. 10 μL of a 10 nM solution of mouse thrombin in assay buffer (described below) was then added to each well of the assay plate. The plate was then shaken on a Lab-Line Instruments Inc. titer plate shaker for 2 minutes at 300 RPM. 10 uL of Chrono-Lume® solution was then added to each well. The plate was again shaken for 3 minutes at 300 RPM. Luminescence data were recorded from a plate reader. Each sample was measured in duplicate and against blanks with and without mouse thrombin to record background and maximum signal measurements. The IC50 data were automatically calculated from the measured luminescence counts by means appreciated by one of skill in the art.
The various solutions involved in this procedure are described as follows. Assay buffer was made by combining 7.5 mL of 5 M NaCl with 1.19 g of HEPES powder, 0.5 mL of 1 M MgCl2, 1.5 mL of 1 M KCl and 235 mL of water in a 500 mL flask. The solution's pH was adjusted to 7.4 using 10 N NaOH, and then brought up to a final volume of 250 mL using water. A 20 mM solution of H-Gly-Pro-Arg-Pro-OH (GPRP) in this assay buffer was made from commercially obtained powder. The PRP Mix was made by first centrifuging down 600 μL of whole CD-1 mouse blood in 1.8 mL sodium citrate vacutainers at 100×g for 10 minutes at room temperature in an Eppendorf 5810 R centrifuge. The plasma layer was then extracted along with as much as possible of the buffy coat into storage vials. Extractions from multiple animals were often pooled together. To make the final mix, 2.3 mL of these plasma extractions was combined with 7.2 mL of the above assay buffer and 0.5 mL of the 20 mM GPRP solution. […]

A further data set is described as follows: Rat pharmacokinetics. The format is in vivo. The following applies: Sprague-Dawley, plasma, SD rats; for C0: C0 by extrapolation. The procedure: Rat pharmacokinetic data were generated as follows. Compounds were administered intravenously (IV) via tail vein or orally (PO) via gastric gavage to Sprague-Dawley rats fitted with surgically implanted jugular vein catheters (JVC) with nominal weights between 250 and 275 g. Nominal doses were 1 mg/kg and 5 mg/kg for IV and PO, respectively. The doses for IV administration were formulated by dissolving the test compound in a mixture (v/v/v) of 5% N,N-dimethylacetamide (DMA), 15% Kolliphor® (Solutol®) HS15, and 80% sterile water at a dose concentration of 0.25 mg/mL. The doses for PO administration were formulated either as Option A or Option B. Option A was formulated by dissolving the test compound in a mixture (v/v) of 90% Kolliphor® (Solutol®) HS15 and 10% pure ethanol at a dose concentration of 0.25 mg/mL. Option B was formulated by dissolving the test compound in a mixture (v/v) of 20% Labrasol® and 80% Phosphate buffer at pH 6.8.
Animals were housed in standard holding cages with food and water available ad libitum except for animals used for PO dosing which were fasted overnight prior to dosing. One to three rats were used for each experiment. Samples were collected manually via its JVC just before the dosing, as well as at the time points of 5 min, 15 min, 30 min, 60 min, 120 min, 4 h, 8 h, 12 h, and 24 h. Alternatively, samples were collected automatically by transferring the animal to a BASi Culex® automated blood-sampling system for the duration of the experiment. Plasma was obtained by centrifuge and stored frozen until analyzed by LC-MS/MS using an AB Sciex™ QTrap® 5500 coupled to a Shimadzu Nexera X2 fitted with a Luna® Omega 1.6 μm Polar C18 100 Å, 50×2.1 mm, acquired from Phenomenex®. Samples were compared against a standard curve of the test compound at concentrations ranging from 10,000 to 0.3 ng/mL.
Pharmacokinetic parameters were calculated from mean concentration values using a non-compartmental analysis as described below and as apparent to those of ordinary skill in the art. Concentration at time zero (C0) for the IV was established by the extrapolation of log linear regression using equal weighting on the first three sample time points. Area under the curve (AUC) values were calculated using linear trapezoidal integration.

Where [2] appears, read: PO 5 mg/kg, Formulation A (90% Kolliphor HS15, 10% ethanol).
[3] abbreviates: PO 5 mg/kg, Formulation A (90% Kolliphor HS15, 10% ethanol), read-out: PO AUC.
Setting [4] is: PO 5 mg/kg, Formulation B (20% Labrasol, 80% phosphate buffer pH 6.8).
Where [5] appears, read: PO 5 mg/kg, Formulation B (20% Labrasol, 80% phosphate buffer pH 6.8), read-out: PO AUC.

Molecules are shown by their SMILES. Read-outs that look alike come from different tables or passages of the source.

With `CC(C)(C)C(=O)n1nc(-c2cccn(CCC(=O)O)c2=O)cc1NCc1ccc(Cl)s1` [Compound 1, 3-[3-(5-{[(5-chlorothiophen-2-yl)methyl]amino}-1-(2,2-dimethylpropanoyl)-1H-pyrazol-3-yl)-2-oxo-1,2-dihydropyridin-1-yl]propanoic acid], in data set [1], the EC50 amounted to 15 µM. In addition, the C0 in “Rat pharmacokinetics” (IV 1 mg/kg) was 6500 ng/mL. Further, the AUC amounted to 3000 ng·h/mL in “Rat pharmacokinetics” (IV 1 mg/kg, read-out: IV AUC) and 2200 ng·h/mL in “Rat pharmacokinetics” (setting [3]). The compound also yielded a Cmax in the data set “Rat pharmacokinetics” (setting [2]) of 240 ng/mL.
`O=C(O)CCn1cccc(-c2cc(NCc3ccc(Cl)s3)[nH]n2)c1=O` [Compound 2, 3-[3-(5-{[(5-chlorothiophen-2-yl)methyl]amino}-1H-pyrazol-3-yl)-2-oxo-1,2-dihydropyridin-1-yl]propanoic acid]: the C0 in the data set “Rat pharmacokinetics” (IV 1 mg/kg) was 5600 ng/mL. Also, the AUC came to 760 ng·h/mL in the data set “Rat pharmacokinetics” (IV 1 mg/kg, read-out: IV AUC) and 140 ng·h/mL in “Rat pharmacokinetics” (setting [5]). The Cmax in “Rat pharmacokinetics” (setting [4]) amounted to 150 ng/mL.
Consider `CC(C)(C)C(=O)n1nc(-c2cccn(CC(=O)O)c2=O)cc1NCc1ccc(Cl)s1` [Compound 4, 2-[3-(5-{[(5-chlorothiophen-2-yl)methyl]amino}-1-(2,2-dimethylpropanoyl)-1H-pyrazol-3-yl)-2-oxo-1,2-dihydropyridin-1-yl]acetic acid], for which, in data set [1], the EC50 is 15 µM. Further, the C0 in the data set “Rat pharmacokinetics” (IV 1 mg/kg) is 12000 ng/mL. The exposure (AUC) in “Rat pharmacokinetics” (IV 1 mg/kg, read-out: IV AUC) turned out to be 2300 ng·h/mL; in “Rat pharmacokinetics” (setting [3]) it was 2300 ng·h/mL. Besides, in “Rat pharmacokinetics” (setting [2]), the highest level (Cmax) was 260 ng/mL.
As for `CC(C)(C)C(=O)n1nc(-c2cccn(CCCC(=O)O)c2=O)cc1NCc1ccc(Cl)s1` [Compound 5, 4-[3-(5-{[(5-chlorothiophen-2-yl)methyl]amino}-1-(2,2-dimethylpropanoyl)-1H-pyrazol-3-yl)-2-oxo-1,2-dihydropyridin-1-yl]butanoic acid], the C0 in “Rat pharmacokinetics” (IV 1 mg/kg) was 5400 ng/mL. In addition, the AUC in the data set “Rat pharmacokinetics” (IV 1 mg/kg, read-out: IV AUC) came to 3300 ng·h/mL; in the data set “Rat pharmacokinetics” (setting [5]), 2100 ng·h/mL. The compound further yielded a Cmax in the data set “Rat pharmacokinetics” (setting [4]) of 930 ng/mL.
Compound `CC(C)(C)C(=O)n1nc(-c2cccn(CCC(N)=O)c2=O)cc1NCc1ccc(Cl)s1` [Compound 8, 3-[3-(5-{[(5-chlorothiophen-2-yl)methyl]amino}-1-(2,2-dimethylpropanoyl)-1H-pyrazol-3-yl)-2-oxo-1,2-dihydropyridin-1-yl]propanamide] yielded a peak concentration (Cmax) in “Rat pharmacokinetics” (setting [4]) of 230 ng/mL. Besides, the AUC in “Rat pharmacokinetics” (setting [5]) amounted to 120 ng·h/mL.
Consider `CC(C)(N)Cn1cccc(-c2cc(NCc3ccc(Cl)s3)n(C(=O)c3ccoc3)n2)c1=O` [Compound 9, 1-(2-amino-2-methylpropyl)-3-(5-{[(5-chlorothiophen-2-yl)methyl]amino}-1-(furan-3-carbonyl)-1H-pyrazol-3-yl)-1,2-dihydropyridin-2-one], for which the EC50 in data set [1] amounted to 0.032 µM. Besides, the C0 in the data set “Rat pharmacokinetics” (IV 1 mg/kg) was 94 ng/mL. For the same compound, the AUC stood at 180 ng·h/mL in the data set “Rat pharmacokinetics” (IV 1 mg/kg, read-out: IV AUC) and 73 ng·h/mL in “Rat pharmacokinetics” (setting [5]). For the same compound, the Cmax in the data set “Rat pharmacokinetics” (setting [4]) came out at 5.8 ng/mL.
For the compound `CCC(C)(C)C(=O)n1nc(-c2cccn(CCC(=O)O)c2=O)cc1NCc1ccc(Cl)s1` [Compound 11, 3-[3-(5-{[(5-chlorothiophen-2-yl)methyl]amino}-1-(2,2-dimethylbutanoyl)-1H-pyrazol-3-yl)-2-oxo-1,2-dihydropyridin-1-yl]propanoic acid], the C0 in the data set “Rat pharmacokinetics” (IV 1 mg/kg) is 6100 ng/mL. For the same compound, the AUC in the data set “Rat pharmacokinetics” (IV 1 mg/kg, read-out: IV AUC) was 3200 ng·h/mL; in the data set “Rat pharmacokinetics” (setting [5]), 2100 ng·h/mL. In “Rat pharmacokinetics” (setting [4]), the Cmax was found to be 1200 ng/mL.
On to `O=C(O)CCn1cccc(-c2cc(NCc3ccc(Cl)s3)n(C(=O)c3ccoc3)n2)c1=O` [Compound 12, 3-[3-(5-{[(5-chlorothiophen-2-yl)methyl]amino}-1-(furan-3-carbonyl)-1H-pyrazol-3-yl)-2-oxo-1,2-dihydropyridin-1-yl]propanoic acid], for which the C0 in the data set “Rat pharmacokinetics” (IV 1 mg/kg) was 4600 ng/mL. The AUC in “Rat pharmacokinetics” (IV 1 mg/kg, read-out: IV AUC) turned out to be 930 ng·h/mL; in the data set “Rat pharmacokinetics” (setting [3]), 28 ng·h/mL. For the same compound, the peak level in the data set “Rat pharmacokinetics” (setting [2]) (Cmax) was 19 ng/mL.

What is called EC50 is the midpoint of the concentration-response curve. Usually AUC stands for concentration integrated over time. In general, Cmax refers to the highest concentration seen after dosing.
